According to ChEMBL document CHEMBL1125531, “Synthetic nonpsychotropic cannabinoids with potent antiinflammatory, analgesic, and leukocyte antiadhesion activities” (1992):
Values joined by “and” are separate entries in the source; they are usually repeats but may differ in a detail not shown here. Equal entries are not always repeated.

Experiments:
Type in all cases: functional
Mus musculus [1] = experiment: Compound was evaluated for the percent inhibition of PAF-induced Paw edema at the dose 0.25 (mg/kg) (Increases in paw volume is 24 uL)
Mus musculus [2] = experiment: Compound was evaluated for the percent inhibition of PAF-induced Paw edema at the dose 0.5 (mg/kg) (Increases in paw volume is 28 uL)
Mus musculus [3] = experiment: Compound was evaluated for the percent inhibition of PAF-induced Paw edema at the dose 0.1 (mg/kg) (Increases in paw volume is 38 uL)
Mus musculus [4] = experiment: Compound was evaluated for the antinociceptive effects at the dose 0.25(mg/kg)
Mus musculus [5] = experiment: Compound was evaluated for the antinociceptive effects at the dose 0.5(mg/kg)
Mus musculus [6] = experiment: Compound was evaluated for the antinociceptive effects at the dose 1.0(mg/kg)
Mus musculus [7] = experiment: Compound was evaluated for the antinociceptive effects at the dose 2.0(mg/kg)
Mus musculus [8] = experiment: Compound was evaluated for the antinociceptive effects at the dose 4.0(mg/kg)
Mus musculus [9] = experiment: Compound was evaluated for the percent inhibition of PAF-induced Paw edema at the dose 1.0 (mg/kg) (Increases in paw volume is 14 uL)
Mus musculus [10] = experiment: Compound was evaluated for the percent inhibition of PAF-induced Paw edema at the dose 0.5 (mg/kg) (Increases in paw volume is 30 uL)
Mus musculus [11] = experiment: Compound was evaluated for the effect on leukocyte adhesion at the dose 0.05 (mg/kg); oral administration
Mus musculus [12] = experiment: Compound was evaluated for the effect on leukocyte adhesion at the dose 0.5(mg/kg); oral administration
Mus musculus [13] = experiment: Compound was evaluated for the effect on leukocyte adhesion at the dose 0.1 (mg/kg); oral administration
Mus musculus [14] = experiment: Compound was evaluated for the effect on leukocyte adhesion at the dose 0.2 (mg/kg); oral administration
Mus musculus [15] = experiment: Compound was evaluated for the percent inhibition of PAF-induced Paw edema at the dose 0.25 (mg/kg) (Increases in paw volume is 11 uL)
Mus musculus [16] = experiment: Compound was evaluated for the percent inhibition of PAF-induced Paw edema at the dose 0.5 (mg/kg) (Increases in paw volume is 7.5 uL)
Mus musculus [17] = experiment: Compound was evaluated for the percent inhibition of arachidonic acid-induced paw edema at the dose 0.05(mg/kg)
Mus musculus [18] = experiment: Compound was evaluated for the percent inhibition of arachidonic acid-induced paw edema at the dose 0.1(mg/kg)
Mus musculus [19] = experiment: Compound was evaluated for the percent inhibition of arachidonic acid-induced paw edema at the dose 0.25(mg/kg)
Mus musculus [20] = experiment: Compound was evaluated for the percent inhibition of arachidonic acid-induced paw edema at the dose 0.5(mg/kg)
Mus musculus [21] = experiment: Compound was evaluated for the percent inhibition of PAF-induced Paw edema at the dose 0.05 (mg/kg) (Increases in paw volume is 10 uL)
Mus musculus [22] = experiment: Compound was evaluated for the effect on leukocyte adhesion at the dose 0.01 (mg/kg); oral administration
Mus musculus [23] = experiment: Compound was evaluated for the effect on leukocyte adhesion at the dose 0.5 (mg/kg); oral administration
Mus musculus [24] = experiment: Compound was evaluated for the effect on leukocyte adhesion at the dose 1.0 (mg/kg); oral administration
Mus musculus [25] = experiment: Compound was evaluated for the antinociceptive effects at the dose 0.025(mg/kg)
Mus musculus [26] = experiment: Compound was evaluated for the antinociceptive effects at the dose 0.05(mg/kg)
Mus musculus [27] = experiment: Compound was evaluated for the antinociceptive effects at the dose 0.1(mg/kg)
Mus musculus [28] = experiment: Compound was evaluated for the cataleptic effect in the mouse at the dose 0.25(mg/kg)
Mus musculus [29] = experiment: Compound was evaluated for the cataleptic effect in the mouse at the dose 0.5(mg/kg)
Mus musculus [30] = experiment: Compound was evaluated for the cataleptic effect in the mouse at the dose 1.0(mg/kg)
Mus musculus [31] = experiment: Compound was evaluated for the cataleptic effect in the mouse at the dose 4.0(mg/kg)
Mus musculus [32] = experiment: Compound was evaluated for the percent inhibition of PAF-induced Paw edema at the dose 0.1 (mg/kg) (Increases in paw volume is 19 uL)
Mus musculus [33] = experiment: Compound was evaluated for the cataleptic effect in the mouse at the dose 40 mg/kg
Mus musculus [34] = experiment: Compound was evaluated for the effect on leukocyte adhesion at the dose 40 (mg/kg); oral administration
Mus musculus [35] = experiment: Compound was evaluated for the cataleptic effect in the mouse at the dose 0.5 mg/kg
Mus musculus [36] = experiment: Compound was evaluated for the cataleptic effect in the mouse at the dose 5.0(mg/kg)
Mus musculus [37] = experiment: Compound was evaluated for the effect on leukocyte adhesion at the dose 20 (mg/kg); oral administration
Mus musculus [38] = experiment: Compound was evaluated for the percent inhibition of PAF-induced Paw edema at the dose 0.5 (mg/kg) (Increases in paw volume is 44 uL)
Mus musculus [39] = experiment: Compound was evaluated for the percent inhibition of PAF-induced Paw edema at the dose 1.0 (mg/kg) (Increases in paw volume is 28 uL)
Mus musculus [40] = experiment: Compound was evaluated for the percent inhibition of PAF-induced Paw edema at the dose 0.1 (mg/kg) (Increases in paw volume is -10 uL)
Mus musculus [41] = experiment: Compound was evaluated for the percent inhibition of PAF-induced Paw edema at the dose 0.25 (mg/kg) (Increases in paw volume is -14 uL)
Mus musculus [42] = experiment: Compound was evaluated for the percent inhibition of PAF-induced Paw edema at the dose 0.5 (mg/kg) (Increases in paw volume is -20 uL)
Mus musculus [43] = experiment: Compound was evaluated for the percent inhibition of PAF-induced Paw edema at the dose 0.05 (mg/kg) (Increases in paw volume is -1.2 uL)
Mus musculus [44] = experiment: Compound was evaluated for the cataleptic effect in the mouse at the dose 0.1(mg/kg)

SMILES: CCCCCCC(C)(C)c1cc(O)c2c(c1)OC(C)(C)C1CC=C(C(=O)OC)C[C@H]21 (some centres undefined)
- Inhibition (Mus musculus [1]): 7.6%
- Inhibition (Mus musculus [2]): -7.5%
- Inhibition (Mus musculus [3]): -44.2%
- Change (Mus musculus [4]): 10.4%
- Change (Mus musculus [5]): 49%
- Change (Mus musculus [6]): 61.4%
- Change (Mus musculus [7]): 37.5%
- Change (Mus musculus [8]): 3.1%

SMILES: CCCCCCC(C)(C)c1cc(O)c2c(c1)OC(C)(C)[C@@H]1CC=C(CO)CC21 (some centres undefined)
- Inhibition (Mus musculus [9]): 56.3%
- Inhibition (Mus musculus [10]): 6.3%
- No. of cells (Mus musculus [11]): 1.12
- No. of cells (Mus musculus [12]): 0.59
- No. of cells (Mus musculus [13]): 0.94
- No. of cells (Mus musculus [14]): 0.58

SMILES: CCCCCCC(C)(C)c1cc(O)c2c(c1)OC(C)(C)C1CC=C(C(=O)O)C[C@H]21 (some centres undefined)
- Inhibition (Mus musculus [15]): 31.9%
- Inhibition (Mus musculus [16]): 60.1%
- Inhibition (Mus musculus [17]): 42.1%
- Inhibition (Mus musculus [18]): 65.8%
- Inhibition (Mus musculus [19]): 52.6%
- Inhibition (Mus musculus [20]): 47.4%
- Inhibition (Mus musculus [21]): 44.4%
- No. of cells (Mus musculus [22]): 1.34
- No. of cells (Mus musculus [11]): 1.29
- No. of cells (Mus musculus [13]): 1.38
- No. of cells (Mus musculus [23]): 1.46
- No. of cells (Mus musculus [24]): 0.7
- Change (Mus musculus [25]): 10.3%
- Change (Mus musculus [26]): 61.7%
- Change (Mus musculus [27]): 49.5%
- Change (Mus musculus [4]): 61.5%
- Change (Mus musculus [5]): 51.7%
- Change (Mus musculus [6]): 14.7%
- Response (Mus musculus [28]): 12.3
- Response (Mus musculus [29]): 13.8
- Response (Mus musculus [30]): 10.4
- Response (Mus musculus [31]): 8.7
- Inhibition (Mus musculus [32]): 38.7%

SMILES: CCCCCc1cc(O)c2c(c1)OC(C)(C)[C@@H]1CCC(C)=C[C@@H]21 [DRONABINOL]
- Cataleptic effect (Mus musculus [33]): 48.9

SMILES: CCCCCc1cc(O)c2c(c1)OC(C)(C)[C@H]1C(C(=O)O)CC(C)=CC21 (some centres undefined)
- No. of cells (Mus musculus [34]): 0.55
- No. of cells (Mus musculus [35]): 10
- No. of cells (Mus musculus [36]): 10.1
- No. of cells (Mus musculus [37]): 0.67

SMILES: CCCCCCC(C)(C)c1cc(O)c2c(c1)OC(C)(C)C1CC=C(CO)C[C@H]21 (some centres undefined)
- Inhibition (Mus musculus [38]): -37.5%
- Inhibition (Mus musculus [39]): 21.8%
- No. of cells (Mus musculus [11]): 1.09
- No. of cells (Mus musculus [13]): 0.44
- No. of cells (Mus musculus [23]): 0.64
- No. of cells (Mus musculus [24]): 0.59

SMILES: CCCCCCC(C)(C)c1cc(O)c2c(c1)OC(C)(C)[C@@H]1CC=C(C(=O)OC)CC21 (some centres undefined)
- Inhibition (Mus musculus [15]): 63.9%
- Inhibition (Mus musculus [16]): 76%
- Change (Mus musculus [5]): -2.8%
- Change (Mus musculus [7]): 42.9%
- Inhibition (Mus musculus [32]): 69.3%

SMILES: CCCCCCC(C)(C)c1cc(O)c2c(c1)OC(C)(C)[C@@H]1CC=C(C(=O)O)CC21 (some centres undefined)
- Inhibition (Mus musculus [40]): 135%
- Inhibition (Mus musculus [41]): 150%
- Inhibition (Mus musculus [42]): 171%
- Inhibition (Mus musculus [17]): 26.3%
- Inhibition (Mus musculus [18]): 52.6%
- Inhibition (Mus musculus [19]): 56.4%
- Inhibition (Mus musculus [20]): 73.7% and 97.4% and 100%
- Inhibition (Mus musculus [43]): 101%
- No. of cells (Mus musculus [22]): 0.88
- No. of cells (Mus musculus [11]): 1.34
- No. of cells (Mus musculus [13]): 0.64
- No. of cells (Mus musculus [23]): 0.87
- No. of cells (Mus musculus [24]): 0.3
- Change (Mus musculus [25]): 20.8%
- Change (Mus musculus [26]): 85%
- Change (Mus musculus [27]): 68.3%
- Change (Mus musculus [4]): 33.4%
- Change (Mus musculus [5]): 34%
- Change (Mus musculus [6]): 28.4%
- Response (Mus musculus [44]): 5.8
- Response (Mus musculus [30]): 12.2
